The text below walks through data of paper PMC11873900, “Insights into the Activation Mechanism of HCA1, HCA2, and HCA3” (Journal of Medicinal Chemistry, 2025).

Like-named read-outs stand apart in the source and are kept apart here.

Test [1] concerns HCA1. The following applies: cited from earlier work.
Test [2] concerns the target T1, HCA1 E166^45.51A (Homo sapiens, UniProt Q9BXC0, E166A).
T1 construct: expressed in transfected cells; host or cells: HEK293
Nature of the test: cAMP reporter assay, HCA1 mutant E166A. It is filed as cell-based. The note with it: HCA1 E166A (Figure 2f). The method, then: (§1) Human embryonic kidney 293 (HEK293) cells were maintained in Dulbecco’s modified Eagle’s medium (DMEM) containing 10% fetal bovine serum (FBS) and antibiotics (100 U/mL penicillin and 100 μg/mL streptomycin) at 37 °C, 5% CO2. Cells (1 × 10^6 per well) were seeded on 6-well plates for 15 h and transiently transfected with a transfection cocktail containing 2 μg of plasmid DNA (1 μg of the target plasmid and 1 μg of pCRE-luc) and 6 μL of X-tremeGENE HP DNA transfection reagents dissolved in 200 μL of phenol red-free OPTI MEM. After 24 h incubation, the medium containing the transfection cocktail was replaced with a serum-supplemented normal culture medium, and cells were plated at a density of approximately 40000 cells/well in white opaque 96-well microplates for an additional 24 h. After 24 h, fresh medium with varied concentrations of ligands was added to the wells, and cells were incubated for 30 min at 37 °C, 5% CO2. Then, forsklin with a final concentration of 5 μM was added to each well for 6 h. Then, all of the medium was removed and 40 μL of Bright-Glo Luciferase Assay System reagent (Promega, U.K.) was added to each well. Luminance was measured in a luminometer (TECAN Spark, CH) after 10 min incubation.

Test [3] concerns the target T2, HCA1 E166^45.51I (Homo sapiens, UniProt Q9BXC0, E166I).
T2 construct: expressed in transfected cells; host or cells: HEK293
As to the kind of experiment: cAMP reporter assay, HCA1 mutant E166I. It is filed as cell-based. The following applies: HCA1 E166I (Figure 2f). The method, then: as §1

Test [4] deals with T3, HCA1 (Homo sapiens, UniProt Q9BXC0).
T3 construct: expressed in transfected cells; host or cells: HEK293
T3 sequence (Q9BXC0 whole entry): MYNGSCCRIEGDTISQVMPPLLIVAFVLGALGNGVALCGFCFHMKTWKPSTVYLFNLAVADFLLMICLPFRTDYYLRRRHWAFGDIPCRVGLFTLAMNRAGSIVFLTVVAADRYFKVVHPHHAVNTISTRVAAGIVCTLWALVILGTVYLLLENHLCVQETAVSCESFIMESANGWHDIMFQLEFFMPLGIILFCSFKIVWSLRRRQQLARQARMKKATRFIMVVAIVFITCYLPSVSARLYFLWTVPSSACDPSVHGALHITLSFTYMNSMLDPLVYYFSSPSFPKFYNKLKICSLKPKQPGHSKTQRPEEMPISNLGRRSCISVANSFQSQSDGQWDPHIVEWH
Nature of the test: cAMP inhibition (CRE-luc reporter) assay, HCA1 wild type. It is filed as cell-based. The note with it: HEK293 cells, mean ± SEM (Table S2a,b). The protocol:
as §1

The target in test [5] is T4, HCA1 R99A (Homo sapiens, UniProt Q9BXC0, R99A).
T4 construct: expressed in transfected cells; host or cells: HEK293
T4 sequence (Q9BXC0 whole entry R99A): as the sequence (Q9BXC0 whole entry) above, with R99A counted along it
As to the kind of experiment: cAMP reporter assay, HCA1 mutant R99A. The note with it: HCA1 R99A (Figure 2f). It is filed as cell-based. The protocol: as §1

Test [6] has as its target T5, HCA1 R240^6.55A (Homo sapiens, UniProt Q9BXC0, R240A).
T5 construct: expressed in transfected cells; host or cells: HEK293
As to the kind of experiment: cAMP reporter assay, HCA1 mutant R240A. It is filed as cell-based. The following applies: HCA1 R240A versus wild type (Figure 2f). The protocol: as §1

In test [7] the target is T6, HCA1 H261^7.36F (Homo sapiens, UniProt Q9BXC0, H261F).
T6 construct: expressed in transfected cells; host or cells: HEK293
T6 sequence (Q9BXC0 whole entry H261F): as the sequence (Q9BXC0 whole entry) above, with H261F counted along it
As to the kind of experiment: cAMP reporter assay, HCA1 mutant H261F. It is filed as cell-based. The note with it: HCA1 H261F (Figure 2f). The protocol: as §1

Test [8] deals with T7, HCA3(1–129)/HCA2(130-) S178^45.51I (Homo sapiens, UniProt Q8TDS4, L107F/L83V/M103V/N86Y/S178I/V27A/W91S).
T7 construct: swap the amino acid segments 1–129 between HCA2 and HCA3; creating chimeras HCA2(1–129)/HCA3(130-) and HCA3(1–129)/HCA2(130-); expressed in transfected cells; host or cells: HEK293
T7 sequence (Q8TDS4 whole entry V27A/L83V/N86Y/W91S/M103V/L107F/S178I): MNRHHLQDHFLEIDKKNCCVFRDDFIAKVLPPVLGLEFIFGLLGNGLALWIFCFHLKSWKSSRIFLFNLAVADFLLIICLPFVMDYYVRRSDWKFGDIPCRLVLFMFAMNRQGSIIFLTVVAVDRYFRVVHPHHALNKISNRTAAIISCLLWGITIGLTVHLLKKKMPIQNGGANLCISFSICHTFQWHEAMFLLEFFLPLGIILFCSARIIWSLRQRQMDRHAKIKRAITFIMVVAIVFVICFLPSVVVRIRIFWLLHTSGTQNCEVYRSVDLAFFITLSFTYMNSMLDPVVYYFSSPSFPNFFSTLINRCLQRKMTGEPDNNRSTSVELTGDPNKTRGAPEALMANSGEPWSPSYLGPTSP
Nature of the test: IP1 accumulation assay, chimera HCA3(1–129)/HCA2(130-) with S178I. The note with it: HCA3(1–129)/HCA2(130-) with mutation S178I (Figure 3d). It is filed as cell-based.

In test [9] the target is T8, HCA2(1–129)/HCA3(130-) N86^2.63Y W91^ECL1S (Homo sapiens, UniProt Q8TDS4, G173T/I156V/L176V/M167L/M317I/M346I/N86Y/P168L/Q187R/R142W/R253H/S178I/W91S).
T8 construct: swap the amino acid segments 1–129 between HCA2 and HCA3; creating chimeras HCA2(1–129)/HCA3(130-) and HCA3(1–129)/HCA2(130-); expressed in transfected cells; host or cells: HEK293
T8 sequence (Q8TDS4 with tags, fused parts or gaps with the stated changes): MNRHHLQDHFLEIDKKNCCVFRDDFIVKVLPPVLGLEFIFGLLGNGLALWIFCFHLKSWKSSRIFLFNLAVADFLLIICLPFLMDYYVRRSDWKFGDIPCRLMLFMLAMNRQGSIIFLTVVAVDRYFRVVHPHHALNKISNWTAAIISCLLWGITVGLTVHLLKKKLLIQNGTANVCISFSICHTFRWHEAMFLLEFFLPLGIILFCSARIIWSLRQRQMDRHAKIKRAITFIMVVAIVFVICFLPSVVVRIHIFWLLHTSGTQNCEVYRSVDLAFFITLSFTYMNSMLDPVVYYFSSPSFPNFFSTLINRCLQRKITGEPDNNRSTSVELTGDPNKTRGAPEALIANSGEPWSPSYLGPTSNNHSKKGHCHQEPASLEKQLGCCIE
Nature of the test: IP1 accumulation assay, chimera HCA2(1–129)/HCA3(130-) with N86Y and W91S. The note with it: HCA2(1–129)/HCA3(130-) with N86Y and W91S (Figure 3d). It is filed as cell-based.

Test [10] addresses T9, HCA2(1–129)/HCA3(130-) (Homo sapiens, UniProt Q8TDS4, G173T/I156V/L176V/M167L/M317I/M346I/P168L/Q187R/R142W/R253H/S178I).
T9 construct: swap the amino acid segments 1–129 between HCA2 and HCA3; creating chimeras HCA2(1–129)/HCA3(130-) and HCA3(1–129)/HCA2(130-); expressed in transfected cells; host or cells: HEK293
Nature of the test: IP1 accumulation assay, chimera HCA2(1–129)/HCA3(130-). It is filed as cell-based. The note with it: IP1 accumulation (Figure 3d). The protocol: The HCA1/HCA2/HCA3 plasmid was transfected into the HEK293 cells (Invitrogen) and cultured for 2 days. The HEK293 cells expressing HCA1/HCA2/HCA3 were washed by PBS and resuspended by the stimulation buffer from a Cisbio Bioassays’ IP-One Gq kit. […] After incubation at 37 °C for 90 min, 3μl Tb Cryptate Antibody and 3μl IP1 d2 Reagent were added to 384-well plates per well. […] The data was analyzed by GraphPad Prism 8.4.0 (GraphPad Software).

Test [11] deals with T10, HCA3(1–129)/HCA2(130-) (Homo sapiens, UniProt P49019, H253R/I178S/I317M/I346M/L167M/L168P/R187Q/T173G/V156I/V176L/W142R).
T10 construct: swap the amino acid segments 1–129 between HCA2 and HCA3; creating chimeras HCA2(1–129)/HCA3(130-) and HCA3(1–129)/HCA2(130-); expressed in transfected cells; host or cells: HEK293
T10 sequence (P49019 with tags, fused parts or gaps with the stated changes): as the sequence (Q8TDS4 whole entry V27A/L83V/N86Y/W91S/M103V/L107F/S178I) above, with I178S counted along it
As to the kind of experiment: IP1 accumulation assay, chimera HCA3(1–129)/HCA2(130-). It is filed as cell-based. The note with it: IP1 accumulation (Figure 3d).

T1 sequence (Q9BXC0 whole entry E166A): as the sequence (Q9BXC0 whole entry) above, with E166A counted along it
T9 sequence (Q8TDS4 with tags, fused parts or gaps with the stated changes): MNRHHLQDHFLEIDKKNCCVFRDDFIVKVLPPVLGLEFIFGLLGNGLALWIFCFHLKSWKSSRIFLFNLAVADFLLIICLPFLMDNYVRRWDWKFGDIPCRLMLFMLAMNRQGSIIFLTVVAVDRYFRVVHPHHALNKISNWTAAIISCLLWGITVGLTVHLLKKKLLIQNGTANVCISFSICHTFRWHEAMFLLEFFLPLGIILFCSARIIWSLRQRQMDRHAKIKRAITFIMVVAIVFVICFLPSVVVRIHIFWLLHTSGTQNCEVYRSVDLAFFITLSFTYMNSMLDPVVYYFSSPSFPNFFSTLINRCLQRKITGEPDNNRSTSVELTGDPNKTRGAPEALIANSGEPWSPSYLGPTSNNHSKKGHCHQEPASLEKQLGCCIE
T2 sequence (Q9BXC0 whole entry E166I): as the sequence (Q9BXC0 whole entry) above, with E166I counted along it
T5 sequence (Q9BXC0 whole entry R240A): as the sequence (Q9BXC0 whole entry) above, with R240A counted along it

Regarding 3-hydroxybutyric acid [3-HBA], in test [1] (HCA1), the EC50 is ~184 µM.
Regarding `O=C(O)c1cc(O)cc(O)c1` [3,5-DHBA, 3,5-dihydroxybenzoic acid], in test [2], the receptor activation result was “inactivity”. In addition, in test [3], the “activation efficacy compared with the wild type” value is “halving of the activation efficacy”. Besides, the negative logarithm of the EC50 (pEC50) in test [4] is 3.7 ± 0.1. Moreover, the potency at mutant entry in test [5] is given as “complete loss of potency”. In addition, in test [6], the “reduction of activation efficacy” value is reported as “around 50%”. In addition, the “efficacy compared with H261A” value in [7] was “marked decrease of efficacy”.
With `CCCCCC(O)CC(=O)O` (stereo not drawn) [3-HO, 3-hydroxy-octanoic acid], the activation of chimera result was “highest potency” in [8], “did not facilitate activation” in test [9], “failed to activate” in test [10] and “capable of activating” in test [11].
Regarding `CCOc1cc(Cl)c(C(=O)NC(=O)Nc2nc3ccc(CN4CCN(C)CC4)cc3s2)cc1N1CCOCC1` [AZ2, 2-chloro-4-ethoxy-N-[[6-[(4-methylpiperazin-1-yl)methyl]-1,3-benzothiazol-2-yl]carbamoyl]-5-morpholino-benzamide], in test [1] (HCA1), the concentration for a half-maximal effect (EC50) is 0.07 to 0.18 µM.
Take `CC(O)C(=O)O` (stereo not drawn) [lactate]: the pEC50 in test [4] came out at 3.2 ± 0.3. The potency at mutant entry in test [5] is listed as “complete loss of potency”. For the same compound, the concentration giving a half-maximal response (EC50) in test [1] (HCA1, endogenous agonist) was 1000 to 5000 µM.
